Source: ChEMBL document CHEMBL1201862, “PubChem BioAssay data set” (2004)
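Where inhibition never reached the appropriate level, the endpoint shown equals the highest concentration tested. Otherwise, values were interpolated linearly from a five-concentration, 48-hour dose response in 96-well plates. GI50 marks 50% less growth.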 Calls of active or inactive are those of the source. Rule as the data show it: active = GI50 up to about 1.1 µM and inactive = higher.

Key:
Experiment in all cases: inhibition of tumour cell growth, NCI panel, 48 h
U-251 = tested on: U-251
MOLT-4 = tested on: MOLT-4
SK-MEL-5 = tested on: SK-MEL-5
SN12C = tested on: SN12C
CAKI-1 = tested on: CAKI-1
HOP-62 = tested on: HOP-62
SR = tested on: SR
LOX IMVI = tested on: LOX IMVI
EKVX = tested on: EKVX
CCRF-CEM = tested on: CCRF-CEM
OVCAR-8 = tested on: OVCAR-8
SK-MEL-2 = tested on: SK-MEL-2
RXF 393 = tested on: RXF 393
Malme-3M = tested on: Malme-3M
SNB-75 = tested on: SNB-75
MDA-N = tested on: MDA-N
T47D = tested on: T47D
NCI/ADR-RES = tested on: NCI/ADR-RES
MDA-MB-231 = tested on: MDA-MB-231

Measured: GI50

COC(=O)CCC(=O)N1Cc2cc(C)ccc2N(C(=O)CCC(=O)OC)Cc2cc(C)ccc21
inactive: U-251 > 100 µM | MOLT-4 > 100 µM | SK-MEL-5 > 100 µM | SN12C > 100 µM | CAKI-1 > 100 µM | HOP-62 > 100 µM | SR > 100 µM | LOX IMVI > 100 µM | EKVX > 100 µM | CCRF-CEM > 100 µM | OVCAR-8 > 100 µM | SK-MEL-2 > 100 µM | RXF 393 > 100 µM

COc1ccc(CN2CCC/C=C/CC(Cl)(Cl)C2=O)cc1
inactive: U-251 34.1 µM | MOLT-4 22.8 µM | SK-MEL-5 18 µM | SN12C 37.9 µM | CAKI-1 38.4 µM | HOP-62 50.9 µM | SR 24.1 µM | LOX IMVI 39.3 µM | CCRF-CEM 35.5 µM | OVCAR-8 40 µM | Malme-3M 23.8 µM | SNB-75 15.1 µM | SK-MEL-2 19.8 µM | RXF 393 17 µM

CC1=CC(=O)C(=O)C2=C1OC1(C2)C(C)CCC2C3(C)CCC(O)C(C)(C)C3CCC21C (stereo not given)
inactive: U-251 14.6 µM | MOLT-4 17.1 µM | SK-MEL-5 18 µM | SN12C > 100 µM | CAKI-1 17.5 µM | HOP-62 19.2 µM | SR 23.8 µM | LOX IMVI 16.7 µM | CCRF-CEM 14 µM | OVCAR-8 19.5 µM | Malme-3M 19.8 µM | SNB-75 48.4 µM | RXF 393 15.3 µM

COc1cc2c(oc(=O)c3c4oc([Si](C)(C)C)cc4cc(OC)c23)c2cccc(OCc3ccccc3)c12
inactive: MOLT-4 > 71.9 µM | SK-MEL-5 38 µM | SN12C > 100 µM | CAKI-1 21.4 µM | HOP-62 18.8 µM | SR 37.7 µM | LOX IMVI 44 µM | EKVX > 66.5 µM | CCRF-CEM 48.3 µM | OVCAR-8 38.5 µM | Malme-3M 32.1 µM | SNB-75 19.7 µM | SK-MEL-2 33.7 µM | RXF 393 > 33.5 µM

CS(=O)(=O)OCCCOS(C)(=O)=O
inactive: U-251 > 100 µM | MOLT-4 > 100 µM | SK-MEL-5 > 100 µM | SN12C > 100 µM | HOP-62 > 100 µM | SR > 100 µM | LOX IMVI > 100 µM | EKVX > 100 µM | CCRF-CEM > 100 µM | OVCAR-8 > 100 µM | Malme-3M > 100 µM | SNB-75 > 100 µM | SK-MEL-2 > 100 µM | RXF 393 > 100 µM

O=C1c2ccccc2C(=O)N1C/C=N/NS(=O)(=O)c1ccc(Br)cc1
inactive: U-251 > 100 µM | MOLT-4 > 100 µM | SK-MEL-5 > 100 µM | SN12C > 100 µM | CAKI-1 74.1 µM | HOP-62 > 100 µM | SR > 100 µM | EKVX > 100 µM | CCRF-CEM > 100 µM | OVCAR-8 > 100 µM | Malme-3M > 100 µM | SNB-75 > 100 µM | SK-MEL-2 > 100 µM

COC(=O)CC(=O)OC1C[C@@H]2CCC3C(C)(C)CCC[C@]3(C)C23CC[C@@]1(C)C3 (stereo not given in full)
inactive: U-251 17.4 µM | MOLT-4 53.8 µM | SK-MEL-5 17.6 µM | SN12C 17.5 µM | CAKI-1 16.9 µM | HOP-62 19.3 µM | SR > 100 µM | LOX IMVI 17.8 µM | CCRF-CEM > 100 µM | OVCAR-8 19.5 µM | Malme-3M 17.9 µM | SNB-75 27.9 µM | RXF 393 18.9 µM

CC(C)CC1C(=O)NCCC(NC(=O)C(Cc2ccc(OC(C)(C)C)cc2)NC(=O)OC(C)(C)C)C(=O)NC(Cc2ccccc2)C(=O)NC(Cc2ccccc2)NC1=O (stereo not given)
inactive: U-251 12.8 µM | MOLT-4 1.51 µM | SK-MEL-5 31 µM | MDA-N 5.82 µM | T47D 3.69 µM | SN12C 16.5 µM | CAKI-1 10.8 µM | HOP-62 19.5 µM | NCI/ADR-RES > 100 µM | SR 13.2 µM | LOX IMVI 4.6 µM | EKVX 4.89 µM | CCRF-CEM 4.3 µM | OVCAR-8 5.68 µM | Malme-3M 13.6 µM | MDA-MB-231 4.9 µM | RXF 393 10.3 µM

N#C/C(=C1\OC(=O)C(c2ccc(Br)cc2)=C1O)c1ccc(Br)cc1
inactive: U-251 13.2 µM | MOLT-4 17.2 µM | SN12C 11.2 µM | CAKI-1 17.3 µM | HOP-62 19.2 µM | SR 17.9 µM | LOX IMVI 15 µM | EKVX 17.5 µM | CCRF-CEM 11.1 µM | OVCAR-8 12.1 µM | Malme-3M 16.9 µM | SNB-75 17.6 µM | RXF 393 12 µM

CCOC(=O)[C@]12C(=C(c3ccccc3)O[C@H]3C=CCC[C@H]31)C(=O)C(=O)N2c1ccccc1
inactive: U-251 13.4 µM | MOLT-4 21.4 µM | SK-MEL-5 93.8 µM | T47D > 100 µM | SN12C > 100 µM | CAKI-1 > 100 µM | HOP-62 > 100 µM | NCI/ADR-RES 17.1 µM | SR 17.7 µM | OVCAR-8 65.2 µM | Malme-3M 65.5 µM | MDA-MB-231 > 100 µM | SK-MEL-2 > 100 µM | RXF 393 > 100 µM

Nc1nc(S)nc(C(=O)Nc2nccs2)c1-c1ccccc1
inactive: U-251 > 100 µM | MOLT-4 > 100 µM | SK-MEL-5 > 100 µM | SN12C > 100 µM | CAKI-1 > 100 µM | HOP-62 > 100 µM | SR > 100 µM | LOX IMVI > 100 µM | EKVX > 100 µM | CCRF-CEM > 100 µM | OVCAR-8 > 100 µM | Malme-3M > 100 µM | SNB-75 > 100 µM | SK-MEL-2 > 100 µM | RXF 393 > 100 µM

[O-][n+]1onc2c1-c1nonc1CC2
inactive: U-251 31.9 µM | MOLT-4 19.2 µM | SK-MEL-5 27 µM | MDA-N 46.2 µM | T47D 83 µM | SN12C 37.5 µM | CAKI-1 69.3 µM | HOP-62 28.2 µM | NCI/ADR-RES 42.7 µM | SR 1.46 µM | LOX IMVI 22.4 µM | EKVX 25.9 µM | CCRF-CEM 27.7 µM | OVCAR-8 46 µM | Malme-3M 11.9 µM | MDA-MB-231 27 µM | SK-MEL-2 24.1 µM | RXF 393 36.1 µM

CN1NC(c2ccccc2)=C(C#N)C(=O)CC1c1ccccc1Cl (stereo not given)
inactive: U-251 > 100 µM | MOLT-4 > 100 µM | SK-MEL-5 69.8 µM | SN12C > 100 µM | CAKI-1 > 100 µM | HOP-62 25.3 µM | SR > 100 µM | LOX IMVI > 100 µM | CCRF-CEM > 100 µM | Malme-3M > 100 µM | SNB-75 86.3 µM | SK-MEL-2 > 100 µM | RXF 393 > 100 µM

CC(=O)OC1CCn2nnc(CO)c21 (stereo not given)
inactive: U-251 > 100 µM | MOLT-4 > 100 µM | SK-MEL-5 > 100 µM | SN12C > 100 µM | CAKI-1 > 100 µM | SR > 100 µM | EKVX > 100 µM | OVCAR-8 > 100 µM | Malme-3M > 100 µM | SNB-75 23.8 µM | SK-MEL-2 > 100 µM | RXF 393 > 100 µM

CCOC(=O)Cn1c(=O)[nH]c(=O)c2[nH]cnc21
inactive: U-251 > 100 µM | MOLT-4 > 100 µM | SK-MEL-5 > 100 µM | SN12C > 100 µM | HOP-62 > 100 µM | SR > 100 µM | LOX IMVI > 100 µM | EKVX > 100 µM | CCRF-CEM > 100 µM | OVCAR-8 > 100 µM | Malme-3M > 100 µM | SNB-75 > 100 µM | SK-MEL-2 > 100 µM | RXF 393 > 100 µM

CCOC(=O)C(C)(C)/C=C\C(Cl)=C(Cl)Cl
inactive: MOLT-4 > 100 µM | SK-MEL-5 > 100 µM | MDA-N > 100 µM | SN12C > 100 µM | CAKI-1 > 100 µM | HOP-62 > 100 µM | NCI/ADR-RES > 100 µM | SR > 100 µM | LOX IMVI > 100 µM | EKVX > 100 µM | CCRF-CEM 71.6 µM | OVCAR-8 > 100 µM | Malme-3M > 100 µM | SNB-75 > 100 µM | MDA-MB-231 > 100 µM | RXF 393 > 100 µM

O=[N+]([O-])c1ccc(-c2noc(-c3ccc(Cl)cc3)c2C2=NCCN2)cc1
inactive: U-251 > 100 µM | MOLT-4 > 100 µM | SK-MEL-5 > 100 µM | SN12C > 100 µM | CAKI-1 > 100 µM | HOP-62 > 100 µM | SR > 100 µM | LOX IMVI > 100 µM | EKVX > 100 µM | CCRF-CEM > 100 µM | OVCAR-8 > 100 µM | Malme-3M > 100 µM | SK-MEL-2 > 100 µM | RXF 393 > 100 µM

COc1ccc(-c2cc(C(=O)Nc3cc(C(F)(F)F)cc(C(F)(F)F)c3)c3ccccc3n2)cc1
inactive: U-251 4.28 µM | MOLT-4 14.2 µM | SK-MEL-5 18 µM | SN12C 10.6 µM | CAKI-1 11.3 µM | HOP-62 12.8 µM | SR 4.29 µM | LOX IMVI 13.4 µM | EKVX 9.06 µM | CCRF-CEM 7.6 µM | OVCAR-8 4.27 µM | Malme-3M 17.9 µM | SNB-75 13.7 µM | SK-MEL-2 12.9 µM | RXF 393 5.12 µM
